This is an account of results in US5494803A, “Immunodiagnostic assay using liposomes carrying labels thereof on outer liposome surface” (North Carolina State University, priority 1994, dated 1996).

Experiment [1] has as its target anti-biotin antibody (ABA). Put plainly: C^14-biotin adsorption to antibody-coated PMMA slides (radioimmunoassay isotherm, Langmuir fit). In kind it is binding. The protocol: The adsorption of biotin to the antibody-coated PMMA surface was studied by exposing the surfaces to C^14 -labeled biotin, washing the slides, and determining the amount of radioactivity remaining on the solid support at different initial concentrations of biotin in the bulk solution. Four PMMA slides (1.5 cm×1.5 cm) coated with antibody, as described above, were incubated in 10 ml of C^14 -biotin PBS solutions in the concentration range from 10^-8 to 10^-4 M. After a ninety minute exposure, the slides were dipped quickly in 200 ml of deionized water to remove unbound C^14 -biotin from the surface. The radioactivity of the slides was determined by scintillation counting. […] As a control, the non-specific adsorption of C^14 -biotin to PMMA alone and to BSA-covered PMMA was tested the same way, using a C^14 -biotin concentration of 10^-4 M.
The ability of the antibody-covered surface to bind biotin based on the results of radioimmunoassays is indicated by the isotherm shown in FIG. 3. The number of moles of biotin bound per unit area of surface is shown as a function of the initial concentration of biotin to which the surface was exposed. […] Assuming that each antibody molecule adsorbed to the surface can bind two biotin molecules, this corresponds to 0.88×10^-12 moles of active ABA/cm^2. […]
The quantity av is the ratio (A/V) which equals 1.88 cm^-1 in these experiments. […]

Experiment [2] has as its system anti-biotin antibody (ABA).
Procedure: The adsorption of fluorescent biotin-conjugated liposomes and FITC-Biotin to the surface of the PMMA cuvettes was studied by measuring the amount of fluorescence remaining on the surface of the cuvette after exposure to a known concentration of fluorescent species and a washing step with PBS. One milliliter of solution containing fluorescent species was injected into the inlet of the cuvette 27 with a syringe, and the solution was allowed to stand in the cuvette for either half an hour or an hour, depending on the experiment. Unbound fluorescent molecules were then washed from the cuvette by pumping PBS with a peristaltic pump at a flow rate of 1 /min. After washing, the shutter 22 on the laser 21 was opened for a few seconds, until the digital reading on the photomultiplier tube counter 30 stabilized. This was recorded as the fluorescent signal in kilo-counts per second (KCPS) coming from the interface. […] This was done when it was necessary to investigate the role of the washing step in reducing the measured fluorescence signal. […]
The maximum signal obtained for adsorbed vesicles, at very high molar concentrations of liposomes, is approximately 1250 KCPS. The quantity λL is estimated by taking the measured fluorescence at a given set of concentrations, and dividing by the maximum signal value for full surface coverage.
For a further experiment, the system named is Anti-Biotin Antibody. The settings on record: half-hour exposure, ten-minute PBS wash.

`O=C(O)CCCC[C@@H]1SC[C@@H]2NC(=O)N[C@@H]21` [biotin]: in experiment [1] (Langmuir isotherm best fit, PMMA coated with ABA, blocked with BSA, PBS, read-out: equilibrium binding constant K (KB) of biotin on adsorbed ABA (converted)), the Kd is 400 nM. In experiment [1] (biotin concentrations greater than 10^-4 M), the “saturation level of biotin bound per unit area of surface” value is on record as “approximately 1.8×10^-12 moles of biotin/cm^2”. Also, the “free biotin concentration at which the decrease in fluorescence commences (experimental)” value in experiment [2] (liposomes 0.01 or 0.03 mg/ml) is recorded as “approximately 2×10^-5 M”. Also, the “free biotin concentration at which fluorescence should decrease significantly (simple Langmuir model)” value in experiment [2] (predicted from KB and KL) was “approximately 4×10^-7 M”.
Take “fluorescein isothiocyanate-biotin [FITC-Biotin]”: in the experiment with Anti-Biotin Antibody, the “association constant of FITC-Biotin to ABA (in words)” value was “very low association constant”.
